# Data taken from patent US11800869B2, “Use of 6-oxo-1,4,5,6-tetrahydropyridazine-3-carboxylic acid, 1-methyl 6-oxo-1,4,5,6-tetrahydropyridazine-3-carboxylic acid and 1-alkyl-6-oxo-1,4,5,6-tetrahydropyridazine-3-carboxylic acid for improving growth performance in plants” (Advanced Crop Chem LLP, priority 2020, dated 2023).
# Marks after values point to notes of the source that are not given here.
# Legend:
# Assay type in all cases: in vivo
# [1] = test system: Wheat; assay: Seed treatment plus foliar spray, root and shoot biomass and emergence, wheat (Example 2)
# Procedure: (§1) Winter wheat variety AWC 13 seeds were treated with either 6-oxo-1,4,5,6-tetrahydropyridazine-3-carboxylic acid (THP) or 1-methyl 6-oxo-1,4,5,6 tetrahydropyridazine-3-carboxylic acid (MTHP) at an effective rate of 10g diluted in 2 L water plus 0.25% Nouryon wetter and applied to 1 ton of seed. These seed were planted in coarse river sand and grown in a greenhouse under ambient light at the greenhouse at 21° C. Plants were irrigated every other day with water containing 50% strength Hoaglands solution. Plants were assessed for emergence and biomass accumulation 30 days after planting. The plants from seeds treated with 6-oxo-1,4,5,6-tetrahydropyridizin-3-carboxylic acid or 1-methyl 6-oxo-1,4,5,6 tetrahydropyridazine-3-carboxylic acid had larger root biomasses (0.83, 0.85 g, dry weight/plant) compared with plants from untreated seeds (0.65 g dry weight/plant). Wheat, corn and pepper seeds were treated with 6-oxo-1,4,5,6-tetrahydropyridizine-3-carboxylic acid (THP) using the same methodology and growth conditions as described in example 1 and the resulting plants were also treated with a light foliar cover spray using an electric hand-held sprayer. (100 g in 200 L water plus 0.25% Nouryon wetter) of 6-oxo-1,4,5,6 tetrahydropyridazine-3-carboxylic acid (30 days post emergence (wheat at Zadoks GS 14 (see FIG. 1), maize at V2, Pepper at 3-4 leaf stage) and then assessed for root and shoot biomass 45 days later. At 75 days post planting the plants were assessed for root and shoot biomass as measured with dry weight.
# [2] = test system: Corn; assay: Seed treatment plus foliar spray, root and shoot biomass and emergence, corn (Example 2)
# Procedure: as §1
# [3] = test system: Pepper; assay: Seed treatment plus foliar spray, root and shoot biomass and emergence, pepper (Example 2)
# Procedure: as §1
# [4] = test system: Wheat plants (Variety AWC 13); assay: Foliar treatment of wheat, foliar and root dry biomass (Example 5); settings: foliar treatment at Zadoks GS 15-20, 30 days after application, mean of 10 plants
# From the text: Wheat plants (Variety AWC 13) were given a foliar treatment of 6-oxo-1,4,5,6-tetrahydropyridazine-3-carboxylic acid(THP) or 1-methyl 6-oxo-1,4,5,6 tetrahydropyridazine-3-carboxylic acid (MTHP) and their foliar and root dry biomass determined 30 days after application. The foliar applications were applied at approximately at Zadoks GS 15-20 (see FIG. 1) and assessed 30 days later at Zadoks GS 22-24 (also shown in FIG. 1).
# [5] = test system: Wheat seeds; assay: Wheat seed treatment, in vitro germination and early growth compared with Take Off (Example 11); settings: 10 g per ton of seed; petri dishes, 20C; FIG. 6
# Procedure: Referring to FIG. 6, illustrated are three photographs 600 of an In vitro assessment of the effects on the germination and early stage growth of wheat following treatment of naked wheat seed with of 6-oxo-1,4,5,6 tetrahydropyridazine-3-carboxylic acid. Untreated 610, THP 620 and a commercial seed treatment, Take Off® 630. The seed shown in 620 was grown under natural daylight conditions at 20-22 degrees Centigrade. Wheat seeds were treated with 6-oxo-1,4,5,6 tetrahydropyridazine-3-carboxylic acid or a commercial seed treatment at labeled rates (Take Off ST) and allowed to germinate to examine and compare the effects of temperature on germination. Wheat seeds were treated with 6-oxo-1,4,5,6 tetrahydropyridazine-3-carboxylic acid or Take Off, a commercial biostimulant (that claims faster germination and emergence). The treated seeds received the treatment compounds at the rate of 10 g per ton of seed utilizing the same dosing methodology as Example 1. However in this case seeds were germinated on moistened absorbent paper towel discs in closed petri dishes. The seeds were incubated at 20C in darkness until germination commenced and then grown in natural diurnal conditions for a further 12 days.
# [6] = test system: field grown wheat; assay: Field grown wheat plots, foliar treatment, yield (Example 12); settings: foliar treatment at Zadocks GS 30
# Procedure: Field grown wheat plants (Var: AWC 13) were given foliar treatment at Zadoks GS 25-26 (FIG. 1) of 6-oxo-1,4,5,6 tetrahydropyridazine-3-carboxylic acid (THP) or 1-methyl 6-oxo-1,4,5,6 tetrahydropyridazine-3-carboxylic acid (MTHP) both at 100 g in 200 L water plus 0.25% Nouryon wetter. Plants were grown under standard UK wheat growing cultural practice (https://andb.org.uk/wheatgg). Yield was assessed at harvest.
# Nine field grown wheat plots (20 m^2) were established. In each plot, the area was split into two and one half treated with 6-oxo-1,4,5,6 tetrahydropyridazine-3-carboxylic acid (THP) to assess for effects on yield. Plants were treated at Zadocks GS 30 as described in example 6 under standard cultural practices. The average yield response compared to the untreated plants across all sites was 0.596 tons per hectare.
# [7] = test system: Wheat seeds (Var. VitPro); assay: Wheat seed treatment, leaf wilting under drought (Example 16); settings: Drought stress; for Wilted leaves: 0 mM: 40; for Total leaves: 0 mM: 47; for % Wilted leaves: 0 mM: 85%
# Procedure: Wheat seeds were treated with 6-oxo-1,4,5,6 tetrahydropyridazine-3-carboxylic and leaf wilting was tracked to examine the resistance to drought in the seedlings as shown in Table 6. Wheat seeds (Var. VitPro) were treated with an aqueous solution of either 0 mM, 1 mM, 0.5 mM, 0.1 mM or 0.01 mM 6-oxo-1,4,5,6 tetrahydropyridazine-3-carboxylic acid at pH 5.7-5.8. The 0 mM 6-oxo-1,4,5,6-tetrahydropyridizine-3-carboxylic acid seeds were imbibed in aqueous solution containing only the soft soap and glycerol. The plants were allowed to grow to Zadoks GS13 (FIG. 1) when water was withheld until plants in all of the treatments had wilted leaves.
# [8] = test system: wheat seedlings; assay: Foliar treatment of wheat seedlings, recovery from drought stress (Example 18); design: dose or concentration left out as unconfirmed; settings: Drought stressed 10 days then 16 days regrowth
# Procedure: Sets of wheat seedlings were given two foliar treatments with 6-oxo-1,4,5,6-tetrahydropyridazine-3-carboxylic acid to examine seedling recovery from drought stress. […] Seedlings were given two foliar treatments: the first at Zadoks GS 12 and at Zadoks GS 14 (FIG. 1). The plants were grown in a greenhouse and fed a standard plant nutrient solution. The plants were drought stressed for 10 days after which water and nutrients were resumed and the plants were allowed to grow for 16 days.
# [9] = seed treatment plus foliar spray 100 g in 200 L, 75 days post planting
# [10] = seed treatment, % Emergence at 10 days post planting
structure (smiles),measurement,setting,value
"O=C1CCC(C(=O)O)=NN1 [THP, 6-oxo-1,4,5,6 tetrahydropyridazine-3-carboxylic acid]","Root Dry Weight, % Difference vs Untreated",[1]; [9],12%
same,"Shoot Dry Weight, % Difference vs Untreated",[1]; [9],7%
same,"Emergence, % Difference vs Untreated",[1]; [10],16%
same,"Root Dry Weight, % Difference vs Untreated",[2]; [9],8%
same,"Shoot Dry Weight, % Difference vs Untreated",[2]; [9],3%
same,"Emergence, % Difference vs Untreated",[2]; [10],11%
same,"Root Dry Weight, % Difference vs Untreated",[3]; [9],19%
same,"Shoot Dry Weight, % Difference vs Untreated",[3]; [9],9%
same,"Emergence, % Difference vs Untreated",[3]; [10],24%
same,Dry Weight Shoot,[4]; Con 0.47,1.01
same,Dry Weight Root,[4]; Con 0.65,1.5
same,root biomass compared with untreated seeds or Take Off treated seeds,[5],greater root biomass
same,shoots compared with untreated seeds or Take Off treated seeds,[5],longer bright green shoots
same,Yield as Percent Increase over Untreated,[6]; Field 1,6.25* %
same,Yield as Percent Increase over Untreated,[6]; Field 2,8.7* %
same,Yield as Percent Increase over Untreated,[6]; Field 3,−0.3%
same,Yield as Percent Increase over Untreated,[6]; Field 4,13.9* %
same,Yield as Percent Increase over Untreated,[6]; Field 5,3.0%
same,Yield as Percent Increase over Untreated,[6]; Field 6,3.3%
same,Yield as Percent Increase over Untreated,[6]; Field 7,6.5%
same,Yield as Percent Increase over Untreated,[6]; Field 8,9.8* %
same,Yield as Percent Increase over Untreated,[6]; Field 9,8.1* %
same,average yield response compared to the untreated plants across all sites,[6]; nine field plots,0.596 tons per hectare
same,Wilted leaves,[7]; seed treatment 0.1 mM,18
same,Total leaves,[7]; seed treatment 0.1 mM,61
same,% Wilted leaves,[7]; seed treatment 0.1 mM,30%
same,Wilted leaves,[7]; seed treatment 0.5 mM,14
same,Total leaves,[7]; seed treatment 0.5 mM,64
same,% Wilted leaves,[7]; seed treatment 0.5 mM,22%
same,Wilted leaves,[7]; seed treatment 1 mM,19
same,Total leaves,[7]; seed treatment 1 mM,57
same,% Wilted leaves,[7]; seed treatment 1 mM,33%
same,"Number of seed heads, avg.","[8]; untreated drought stressed 7.1, normal water 5.4",8.3
same,"Total foliar fresh wt., avg.","[8]; untreated drought stressed 28.2, normal water 32.3",33.4 g
